The record followed here is patent US10322104B2, “Disulfur bridge linkers for conjugation of a cell-binding molecule” (Suzhou M-Conj Biotech Co., Ltd., priority 2015, dated 2019).

The subject of assay [1] is NCI-N87, a human gastric carcinoma cell line (Ag+). Put plainly: In vitro cytotoxicity (MTT), N87 cells. It is filed as cell-based. The method, then: (§1) The cell lines used in the cytotoxicity assays were HL-60, a human promyelocytic leukemia cell line; NCI-N87, a human gastric carcinoma cell line; and SKOV3, a human ovarian carcinoma cell line. For HL-60, and NCI-N87, the cells were grown in RPMI-1640 with 10% FBS. For SKOV3 cells, the cells were grown in McCoy's 5A Medium with 10% FBS. To run the assay, the cells (180 μl, 6000 cells) were added to each well in a 96-well plate and incubated for 24 hours at 37° C. with 5% CO2. Next, the cells were treated with test compounds (20 μl) at various concentrations in appropriate cell culture medium (total volume, 0.2 mL). The control wells contain cells and the medium but lack the test compounds. The plates were incubated for 120 hours at 37° C. with 5% CO2. MTT (5 mg/ml) was then added to the wells (20 μl) and the plates were incubated for 1.5 hr at 37° C. The medium was carefully removed and DMSO (180 μl) was added afterward. After it was shaken for 15 min, the absorbance was measured at 490 nm and 570 nm with a reference filter of 620 nm. The inhibition % was calculated according to the following equation: inhibition %=[1−(assay-blank)/(control-blank)]×100.

Assay [2] has as its system SKOV3, a human ovarian carcinoma cell line (Ag+). Put plainly: In vitro cytotoxicity (MTT), SK-OV-3 cells. It is filed as cell-based. Here is the method: as §1
Assay [3] has as its system HL-60, a human promyelocytic leukemia cell line (Ag−). Put plainly: In vitro cytotoxicity (MTT), HL-60 cells. Type of assay: cell-based. The conditions noted are these: 120 hours incubation, read-out: IC50 (nM) HL60 cell (Ag−). Here is the method: as §1
The test system of assay [4] is human gastric carcinoma N-87 cell line tumor xenograft. Description: Antitumor activity in vivo, N-87 tumor xenograft. Particulars: one injection. More on the design: species or system female BALB/c Nude mice. Here is the method: Five-week-old female BALB/c Nude mice (30 animals) were inoculated subcutaneously in the area under the right shoulder with N-87 carcinoma cells (5×10^6 cells/mouse) in 0.1 mL of serum-free medium. The tumors were grown for 8 days to an average size of 136 mm^3. The animals were then randomly divided into 5 groups (6 animals per group). The first group of mice served as the control group and was treated with the phosphate-buffered saline vehicle. […] Three dimensions of the tumor were measured every 4 days and the tumor volumes were calculated using the formula tumor volume=½ (length×width×height). The weight of the animals was also measured at the same time. A mouse was sacrificed when any one of the following criteria was met: (1) loss of body weight of more than 20% from pretreatment weight, (2) tumor volume larger than 1500 mm^3, (3) too sick to reach food and water, or (4) skin necrosis. A mouse was considered to be tumor-free if no tumor was palpable.

[5] abbreviates: relative to HL60 cell (Ag−) IC50.

In general, IC50 refers to the point on the concentration scale where inhibition reaches its midpoint. With T-DM1, the IC50 was 0.266 nM in assay [1] (MTT, 120 hours incubation); 0.177 nM in assay [2] (MTT, 120 hours incubation); over 15 nM in assay [3]. Further, in assay [1] (setting [5]), the “Specificity for N87 cell” value was “over 56”. For the same substance, in assay [2] (setting [5]), the “Specificity for SK-OV-3 cell” value is “over 84”. In addition, in assay [4] (5 mg/Kg i.v., at days 13 and 21 until day 37 and 45, 6 animals per group), the “animals with no tumor measurable” value is reported as 2/6. For the same substance, the “duration of tumor growth inhibition” value in assay [4] (5 mg/kg, i.v.) is reported as “about 44 days”. In addition, in assay [4] (5 mg/kg, i.v., day 13˜21 till day 60 (the end of experiment)), the “anti-tumor effect (FIG. 12)” value is “did not completely eliminate the tumor”.
